Values quoted from earlier work in US10576065B2, “Pharmaceutical composition containing rifaximin alpha and delta” (Sandoz AG, priority 2016, dated 2020).
Read-outs that look alike come from different tables or passages of the source.

How the values were obtained:
[1] = design: AUC: concentration or dose not given beside the values; details: dogs
[2] = human
[3] = film coated tablets, 400 mg (Blandizzi et al.), listed as Prior art alpha
[4] = film coated tablets, 400 mg (Blandizzi et al.)

SMILES: CO[C@H]1/C=C/O[C@@]2(C)Oc3c(C)c(O)c4c(O)c(c5c(nc6cc(C)ccn65)c4c3C2=O)NC(=O)/C(C)=C\C=C\[C@H](C)[C@H](O)[C@@H](C)[C@@H](O)[C@@H](C)[C@H](OC(C)=O)[C@@H]1C [Alpha, rifaximin]
- AUC [1]: 17 ng·h/mL
- Cmax [1]: 2.6 ng/mL
- AUC ([2]; 200 mg): 5.77 ng·h/mL
- Cmax ([2]; 200 mg): 1.59 ng/mL
- AUC ([2]; 400 mg): 13.03 ng·h/mL
- Cmax ([2]; 400 mg): 3.54 ng/mL
- AUCt [2, 3]: 13.03 ng·h/mL
- Cmax [2, 3]: 3.54 ng/mL

SMILES: CO[C@H]1/C=C/O[C@@]2(C)Oc3c(C)c(O)c4c(O)c(c5c(nc6cc(C)ccn65)c4c3C2=O)NC(=O)/C(C)=C\C=C\[C@H](C)[C@H](O)[C@@H](C)[C@@H](O)[C@@H](C)[C@H](OC(C)=O)[C@@H]1C [Beta, rifaximin]
- AUC [1]: 12 ng·h/mL
- Cmax [1]: 1.1 ng/mL

SMILES: CO[C@H]1/C=C/O[C@@]2(C)Oc3c(C)c(O)c4c(O)c(c5c(nc6cc(C)ccn65)c4c3C2=O)NC(=O)/C(C)=C\C=C\[C@H](C)[C@H](O)[C@@H](C)[C@@H](O)[C@@H](C)[C@H](OC(C)=O)[C@@H]1C [Delta, rifaximin]
- AUC [1]: 830 ng·h/mL
- Cmax [1]: 308.3 ng/mL

SMILES: CO[C@H]1/C=C/O[C@@]2(C)Oc3c(C)c(O)c4c(O)c(c5c(nc6cc(C)ccn65)c4c3C2=O)NC(=O)/C(C)=C\C=C\[C@H](C)[C@H](O)[C@@H](C)[C@@H](O)[C@@H](C)[C@H](OC(C)=O)[C@@H]1C [Epsilon, rifaximin]
- AUC [1]: 77 ng·h/mL
- Cmax [1]: 6.9 ng/mL

SMILES: CO[C@H]1/C=C/O[C@@]2(C)Oc3c(C)c(O)c4c(O)c(c5c(nc6cc(C)ccn65)c4c3C2=O)NC(=O)/C(C)=C\C=C\[C@H](C)[C@H](O)[C@@H](C)[C@@H](O)[C@@H](C)[C@H](OC(C)=O)[C@@H]1C [Gamma, rifaximin]
- AUC [1]: 4,894 ng/ml × h
- Cmax [1]: 1,085.1 ng/ml

SMILES: CO[C@H]1/C=C/O[C@@]2(C)Oc3c(C)c(O)c4c(O)c(c5c(nc6cc(C)ccn65)c4c3C2=O)NC(=O)/C(C)=C\C=C\[C@H](C)[C@H](O)[C@@H](C)[C@@H](O)[C@@H](C)[C@H](OC(C)=O)[C@@H]1C [amorphous, rifaximin]
- AUC ([2]; 200 mg): 16.13 ng·h/mL
- Cmax ([2]; 200 mg): 3.70 ng/mL
- AUC ([2]; 400 mg): 68.80 ng·h/mL
- Cmax ([2]; 400 mg): 15.01 ng/mL
- AUCt [2, 4]: 68.80 ng·h/mL
- Cmax [2, 4]: 15.01 ng/mL
